Results taken from patent US20130309224A1 (BOEHRINGER INGELHEIM INTERNATIONAL GMBH, priority 2012, published 2013).

Experiments:
[1] = test system: Raji Burkitt lymphoma cells; assay: Apoptosis assay (Annexin V/PI staining, FACS) on Raji cells; type: cell-based; conditions: 48 h, A2 10 μg/ml, AnnexinV positive cells corrected for background
[2] = test system: Ramos Burkitt lymphoma cells; assay: Apoptosis assay (Annexin V/PI staining, FACS) on Ramos cells; type: cell-based, human; conditions: 48 h, A2 10 μg/ml, AnnexinV positive cells corrected for background
DoHH2 tumor cells = assay: Example 2: DoHH2 human xenograft tumor model, A2 with bendamustine; type: in vivo, CB-17 SCID mice; conditions: A2 10 mg/kg twice weekly, bendamustine 10 mg/kg twice weekly ip; compared to control treated animals
[3] = test system: human follicular lymphoma (DOHH2); assay: Example 4: DOHH2 follicular lymphoma xenograft, A2 with bendamustine, tumor volume; type: in vivo, C.B-17 scid mice
[4] = Example 4: body weight as indicator of tolerability; conditions: for tolerability / body weight loss (in words): A2 10 mg/kg, bendamustine 20 mg/kg i.p.
human CD37 = molecular target: T1, human CD37 (human, UniProt P11049 1-281, limits assumed); assay: not described (statement in the discussion of Example 3)
T1 sequence (looked up): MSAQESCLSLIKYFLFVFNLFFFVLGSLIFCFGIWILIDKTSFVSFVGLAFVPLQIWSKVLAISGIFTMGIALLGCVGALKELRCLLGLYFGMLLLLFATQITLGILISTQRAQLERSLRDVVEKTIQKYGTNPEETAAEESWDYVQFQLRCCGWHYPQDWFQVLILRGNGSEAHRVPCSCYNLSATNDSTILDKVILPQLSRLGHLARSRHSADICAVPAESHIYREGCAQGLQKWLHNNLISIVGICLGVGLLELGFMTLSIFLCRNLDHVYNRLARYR

mouse CD37 = molecular target: T2, mouse CD37 (mouse, UniProt Q61470 1-281, limits assumed); assay: as above
T2 sequence (looked up): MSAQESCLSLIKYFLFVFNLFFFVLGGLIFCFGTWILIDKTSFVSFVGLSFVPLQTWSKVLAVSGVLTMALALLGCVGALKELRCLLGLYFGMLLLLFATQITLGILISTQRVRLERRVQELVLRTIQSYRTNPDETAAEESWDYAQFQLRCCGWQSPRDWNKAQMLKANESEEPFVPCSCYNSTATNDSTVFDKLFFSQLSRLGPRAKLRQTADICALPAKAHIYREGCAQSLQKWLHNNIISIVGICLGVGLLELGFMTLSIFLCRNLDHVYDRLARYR

[5] = bendamustine concentration 400 μM

Row | Molecule | % apoptotic cells ([1]; bendamustine concentration 200 μM) [%] | % apoptotic cells [1, 5] [%] | % apoptotic cells ([2]; bendamustine concentration 100 μM) [%] | % apoptotic cells [2, 5] [%] | anti-tumor effect (tumor growth retardation) (DoHH2 tumor cells) | inhibition of DOHH2 tumor growth (in words) ([3]; A2 10 mg/kg, bendamustine 20 mg/kg i.p.) | CR [x/7] ([3]; complete tumor regressions, day 16) | tumors growth inhibited (of 7 treated) ([3]; day 16) [tumors] | TGI [%] ([3]; median, day 16, vs vehicle control, A2 10 mg/kg i.p. d1,d5,d8,d12,d15, bendamustine 20 mg/kg i.p. two injections) | PR [x/7] ([3]; partial tumor regressions, day 16) | tolerability / body weight loss (in words) [4] | tolerability / body weight loss (in words) ([4]; listed as Bendamustine) | body weight loss in median within the first week of treatment ([4]; bendamustine i.p. day 2 and 6) | binding result (human CD37) | binding result (mouse CD37)
1 | Cn1c(CCCC(=O)O)nc2cc(N(CCCl)CCCl)ccc21 [bendamustine, 4-[5-[Bis(2-chloroethyl)amino]-1-methylbenzimidazol-2-yl]butanoic acid, reference compound] | 10 | 13 | 19 | 35 | significant anti-tumor effect | significant inhibition of tumor growth | 0 | 7 | 57 | 0 | moderately tolerated | resulted in weight loss | up to 7.9% | – | –
2 | Antibody A2 (antibody, human IgG1, kappa, V domains shown, also called mAb A2; MAb A2) VH: AVQLQQSGPELEKPGASVKISCKASGYSFTGYNMNWVKQNNGKSLEWIGNIDPYYGGTTYNRKFKGKATLTVDKSSSTAYMQLKSLTSEDSAVYYCARSVGPMDYWGQGTSVTVSS VL: DIQMTQSPASLSASVGETVTITCRTSENVYSYLAWYQQKQGKSPQLLVSFAKTLAEGVPSRFSGSGSGTQFSLKISSLQPEDSGSYFCQHHSDNPWTFGGGTELEIKR | – | – | – | – | – | – | – | – | – | – | – | – | – | binds | no binding
